Assay results reported in ChEMBL document CHEMBL5055650, “4-Acyl Pyrrole Capped HDAC Inhibitors: A New Scaffold for Hybrid Inhibitors of BET Proteins and Histone Deacetylases as Antileukemia Drug Leads” (J Med Chem, 2021).
Activity calls are given as the source filed them.

Legend:
[1] = tested on: Danio rerio; test: Toxicity in zebrafish embryos assessed as yolk sac edema at 0.5 uM after 72 hrs by visual analysis (reference value: 0%); type: organism-based, Embryo; conditions: in vivo
[2] = organism: Danio rerio; test: Toxicity in zebrafish embryos assessed as tail necrosis at 0.05 uM after 72 hrs by visual analysis (reference value: 0%); type: organism-based; conditions: in vivo
[3] = organism: Danio rerio; test: Toxicity in zebrafish embryos assessed as malformation of tail at 5 uM after 72 hrs by visual analysis (reference value: 5%); type: organism-based; conditions: in vivo
[4] = organism: Danio rerio; test: Toxicity in zebrafish embryos assessed as cardiac teratogenesis/necrosis at 0.005 uM after 72 hrs by visual analysis (reference value: 0%); type: organism-based, Embryo; conditions: in vivo
[5] = organism: Danio rerio; test: Toxicity in zebrafish embryos assessed as small eyes at 0.005 uM after 72 hrs by visual analysis (reference value: 10%); type: organism-based, Embryo; conditions: in vivo
[6] = organism: Danio rerio; test: Toxicity in zebrafish embryos assessed as malformation of head at 0.5 uM after 72 hrs by visual analysis (reference value: 0%); type: organism-based; conditions: in vivo
[7] = organism: Danio rerio; test: Toxicity in zebrafish embryos assessed as malformation of head at 0.005 uM after 72 hrs by visual analysis (reference value: 0%); type: organism-based; conditions: in vivo
[8] = organism: Danio rerio; test: Toxicity in zebrafish embryos assessed as teratogenesis at 0.5 uM after 72 hrs by visual analysis (reference value: 0%); type: organism-based, Embryo; conditions: in vivo
[9] = tested on: Danio rerio; test: Toxicity in zebrafish embryos assessed as pericardial edema at 0.05 uM after 72 hrs by visual analysis (reference value: 10%); type: organism-based, Embryo; conditions: in vivo
[10] = organism: Danio rerio; test: Toxicity in zebrafish embryos assessed as head necrosis at 50 uM after 72 hrs by visual analysis (reference value: 0%); type: organism-based; conditions: in vivo
[11] = organism: Danio rerio; test: Toxicity in zebrafish embryos assessed as tail necrosis at 5 uM after 72 hrs by visual analysis (reference value: 0%); type: organism-based; conditions: in vivo
[12] = organism: Danio rerio; test: Toxicity in zebrafish embryos assessed as head necrosis at 5 uM after 72 hrs by visual analysis (reference value: 0%); type: organism-based; conditions: in vivo
[13] = tested on: Danio rerio; test: Toxicity in zebrafish embryos assessed as pericardial edema at 5 uM after 72 hrs by visual analysis (reference value: 10%); type: organism-based, Embryo; conditions: in vivo
[14] = tested on: Danio rerio; test: Toxicity in zebrafish embryos assessed as yolk sac edema at 5 uM after 72 hrs by visual analysis (reference value: 0%); type: organism-based, Embryo; conditions: in vivo
[15] = tested on: Danio rerio; test: Toxicity in zebrafish embryos assessed as pericardial edema at 0.5 uM after 72 hrs by visual analysis (reference value: 10%); type: organism-based, Embryo; conditions: in vivo
[16] = organism: Danio rerio; test: Toxicity in zebrafish embryos assessed as cardiac teratogenesis/necrosis at 50 uM after 72 hrs by visual analysis (reference value: 0%); type: organism-based, Embryo; conditions: in vivo
[17] = organism: Danio rerio; test: Toxicity in zebrafish embryos assessed as small eyes at 0.5 uM after 72 hrs by visual analysis (reference value: 10%); type: organism-based, Embryo; conditions: in vivo
[18] = organism: Danio rerio; test: Toxicity in zebrafish embryos assessed as malformation of head at 0.05 uM after 72 hrs by visual analysis (reference value: 0%); type: organism-based; conditions: in vivo
[19] = Nonlethal toxicity in zebrafish embryos assessed as embryo survival at 0.05 uM after 72 hrs by visual analysis (reference value: 100%); type: organism-based, Danio rerio; conditions: in vivo
[20] = organism: Danio rerio; test: Toxicity in zebrafish embryos assessed as cardiac teratogenesis/necrosis at 5 uM after 72 hrs by visual analysis (reference value: 0%); type: organism-based, Embryo; conditions: in vivo
[21] = tested on: Danio rerio; test: Toxicity in zebrafish embryos assessed as yolk sac edema at 0.005 uM after 72 hrs by visual analysis (reference value: 0%); type: organism-based, Embryo; conditions: in vivo
[22] = tested on: HPBALL; test: Induction of apoptosis in human HPBALL cells assessed as annexin V positive cells at 5 uM after 48 hrs by annexin V/PI staining measured by flow cytometry; type: functional, cell-based
[23] = organism: Danio rerio; test: Toxicity in zebrafish embryos assessed as head necrosis at 0.005 uM after 72 hrs by visual analysis (reference value: 0%); type: organism-based; conditions: in vivo
[24] = organism: Danio rerio; test: Toxicity in zebrafish embryos assessed as malformation of head at 50 uM after 72 hrs by visual analysis (reference value: 0%); type: organism-based; conditions: in vivo
[25] = organism: Danio rerio; test: Toxicity in zebrafish embryos assessed as small eyes at 5 uM after 72 hrs by visual analysis (reference value: 10%); type: organism-based, Embryo; conditions: in vivo
[26] = organism: Danio rerio; test: Toxicity in zebrafish embryos assessed as small eyes at 0.05 uM after 72 hrs by visual analysis (reference value: 10%); type: organism-based, Embryo; conditions: in vivo
[27] = tested on: Danio rerio; test: Toxicity in zebrafish embryos assessed as yolk sac edema at 0.05 uM after 72 hrs by visual analysis (reference value: 0%); type: organism-based, Embryo; conditions: in vivo
[28] = organism: Danio rerio; test: Toxicity in zebrafish embryos assessed as brain hemorrhage at 5 uM after 72 hrs by visual analysis (reference value: 0%); type: organism-based; conditions: in vivo
[29] = tested on: HPBALL; test: Anticancer activity against human HPBALL cells assessed as reduction in size of colony at 5 uM measured after 24 hrs by colony formation assay; type: functional, cell-based
[30] = tested on: HPBALL; test: Anticancer activity against human HPBALL cells assessed as reduction in total number of colony forming units at 5 uM measured after 24 hrs by colony formation assay; type: functional, cell-based
[31] = Nonlethal toxicity in zebrafish embryos assessed as embryo survival at 0.005 uM after 72 hrs by visual analysis (reference value: 100%); type: organism-based, Danio rerio; conditions: in vivo
[32] = tested on: K562; test: Induction of apoptosis in human K562 cells assessed as apoptosis at 3.4 uM after 24 to 72 hrs using annexin V/PI followed by flow cytometry; type: functional, cell-based; conditions: time 24-72 hrs
[33] = tested on: K562; test: Induction of apoptosis in human K562 cells assessed as apoptosis at 2.9 uM after 24 to 72 hrs using annexin V/PI followed by flow cytometry; type: functional, cell-based; conditions: time 24-72 hrs

Cc1[nH]c(C(=O)Nc2cc(S(=O)(=O)N3CCOCC3)ccc2OCCCCCCCC(=O)NO)c2c1C(=O)CCCC2
active: Activity [22] | Activity [29] | Activity [30]
100%: survival at 72 h, 0.005 µM [31]
40%: Activity [20]
20%: Activity [15]
5%: Activity [21] | Activity [25] | Activity [26] | Activity [27]
10%: Activity [3] | Activity [5] | Activity [9] | Activity [13]
95%: survival at 72 h, 0.05 µM [19]
0%: Activity [2] | Activity [4] | Activity [11] | Activity [12] | Activity [14] | Activity [16] | Activity [18] | Activity [28]
15%: Activity [1] | Activity [6] | Activity [7] | Activity [8] | Activity [10] | Activity [17] | Activity [23] | Activity [24]

CCc1c(C(=O)Nc2cc(/C=C/C(=O)NO)ccc2OC)[nH]c(C)c1C(C)=O
active: Activity [32]

COc1ccc(S(=O)(=O)n2ccc(/C=C/C(=O)NO)c2)cc1NC(=O)c1[nH]c(C)c2c1CCCCC2=O
active: Activity [33]
